Results from ChEMBL document CHEMBL1201862, “PubChem BioAssay data set” (2004).
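Dose response: 5 concentrations. Exposure: 48 h. Format: 96-well plates. Endpoint: linear interpolation; highest concentration if not reached. Abbreviation: GI50, concentration required for 50% inhibition of growth.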 Calls of active or inactive are those of the source. Rule as the data show it: active = GI50 up to about 1.1 µM and inactive = higher.

Experiments:
Assay in all cases: DTP human tumour cell line panel, 48 h
EKVX = tested on: EKVX
MOLT-4 = tested on: MOLT-4
DU-145 = tested on: DU-145
OVCAR-3 = tested on: OVCAR-3
UO-31 = tested on: UO-31
NCI-H460 = tested on: NCI-H460
SR = tested on: SR
HCT-116 = tested on: HCT-116
A498 = tested on: A498
MDA-MB-231 = tested on: MDA-MB-231
NCI-H522 = tested on: NCI-H522
OVCAR-8 = tested on: OVCAR-8
Malme-3M = tested on: Malme-3M
IGROV-1 = tested on: IGROV-1
SN12C = tested on: SN12C
Hs-578T = tested on: Hs-578T
K562 = tested on: K562
OVCAR-5 = tested on: OVCAR-5
NCI/ADR-RES = tested on: NCI/ADR-RES
CCRF-CEM = tested on: CCRF-CEM

SMILES	GI50 (EKVX)	GI50 (MOLT-4)	GI50 (DU-145)	GI50 (OVCAR-3)	GI50 (UO-31)	GI50 (NCI-H460)	GI50 (SR)	GI50 (HCT-116)	GI50 (A498)	GI50 (MDA-MB-231)	GI50 (NCI-H522)	GI50 (OVCAR-8)	GI50 (Malme-3M)	GI50 (IGROV-1)	GI50 (SN12C)	GI50 (Hs-578T)	GI50 (K562)	GI50 (OVCAR-5)	GI50 (NCI/ADR-RES)	GI50 (CCRF-CEM)
CCCCCCc1cc2cc(-c3csc(CC#N)n3)c(=O)oc2cc1O	> 100 µM (inactive)	43.1 µM (inactive)	> 100 µM (inactive)	11.1 µM (inactive)	27 µM (inactive)	8.55 µM (inactive)	> 56.6 µM (inactive)	5.89 µM (inactive)	56 µM (inactive)	11.7 µM (inactive)	10.4 µM (inactive)	13 µM (inactive)	> 100 µM (inactive)	29.8 µM (inactive)	99.1 µM (inactive)	12.4 µM (inactive)	> 69.2 µM (inactive)	> 100 µM (inactive)	6.35 µM (inactive)	> 49.2 µM (inactive)
CCOCc1nc2c(OC)c(-c3nc4ccc(N5CCN(C)CC5)cc4[nH]3)cc(OC)c2[nH]1	> 100 µM (inactive)	31.2 µM (inactive)	68.5 µM (inactive)	31.6 µM (inactive)	22.1 µM (inactive)	26.4 µM (inactive)	24.2 µM (inactive)	34 µM (inactive)	37 µM (inactive)	28.2 µM (inactive)	23.5 µM (inactive)	80.2 µM (inactive)	18 µM (inactive)	91.6 µM (inactive)	74.3 µM (inactive)	34.2 µM (inactive)	35.6 µM (inactive)	83.6 µM (inactive)	> 100 µM (inactive)	12.7 µM (inactive)
O=C(NCCCN1CCN(CCCNC(=O)c2cc(-c3ccccc3)nc3ccccc23)CC1)c1cc(-c2ccccc2)nc2ccccc12	21.5 µM (inactive)	14 µM (inactive)	29.8 µM (inactive)	27.7 µM (inactive)	9.18 µM (inactive)	9.2 µM (inactive)	3.37 µM (inactive)	23.4 µM (inactive)	33.9 µM (inactive)	26.1 µM (inactive)	14 µM (inactive)	12.2 µM (inactive)	1.59 µM (inactive)	9.53 µM (inactive)	16.3 µM (inactive)	13.2 µM (inactive)	5.02 µM (inactive)	29.6 µM (inactive)	24.1 µM (inactive)	11.6 µM (inactive)
CCOC(=O)CCC(NC(=O)OCc1ccccc1)C(=O)NNC(=O)OC(C)(C)C (stereo not given)	> 100 µM (inactive)	> 100 µM (inactive)	> 100 µM (inactive)	> 100 µM (inactive)	> 100 µM (inactive)	> 100 µM (inactive)	> 100 µM (inactive)	> 100 µM (inactive)	> 100 µM (inactive)	41.7 µM (inactive)	> 100 µM (inactive)	> 100 µM (inactive)	> 100 µM (inactive)	> 100 µM (inactive)	> 100 µM (inactive)	> 100 µM (inactive)	> 100 µM (inactive)	> 100 µM (inactive)	> 100 µM (inactive)	> 100 µM (inactive)
O=C1OC(OC/C(Br)=C(/Br)COC2OC(=O)C(Cl)=C2Cl)C(Cl)=C1Cl (stereo not given)	16.1 µM (inactive)	2.26 µM (inactive)	16.1 µM (inactive)	4.88 µM (inactive)	6.31 µM (inactive)	19.6 µM (inactive)	0.724 µM (active)	3.13 µM (inactive)	21.9 µM (inactive)	7.69 µM (inactive)	2.14 µM (inactive)	6.93 µM (inactive)	7.57 µM (inactive)	13.7 µM (inactive)	9.1 µM (inactive)	13 µM (inactive)	2.07 µM (inactive)	14.1 µM (inactive)	6.7 µM (inactive)	1.71 µM (inactive)
COc1ccccc1NC1=NCC(C)S1 (stereo not given)	> 100 µM (inactive)	> 100 µM (inactive)	> 100 µM (inactive)	> 100 µM (inactive)	> 100 µM (inactive)	> 100 µM (inactive)	> 100 µM (inactive)	> 100 µM (inactive)	> 100 µM (inactive)	> 100 µM (inactive)	> 100 µM (inactive)	> 100 µM (inactive)	> 100 µM (inactive)	> 100 µM (inactive)	> 100 µM (inactive)	> 100 µM (inactive)	> 100 µM (inactive)	> 100 µM (inactive)	> 100 µM (inactive)	> 100 µM (inactive)
Cc1cc2nc(-c3c(F)cccc3F)n(Cc3c(F)cccc3F)c2cc1C	8.24 µM (inactive)	13.1 µM (inactive)	23.6 µM (inactive)	16.4 µM (inactive)	11.1 µM (inactive)	13.6 µM (inactive)	11.3 µM (inactive)	12.1 µM (inactive)	20.1 µM (inactive)	14 µM (inactive)	12.7 µM (inactive)	13.5 µM (inactive)	27.9 µM (inactive)	14.3 µM (inactive)	16.4 µM (inactive)	19.2 µM (inactive)	11 µM (inactive)	16.6 µM (inactive)	18.5 µM (inactive)	22.7 µM (inactive)
COC(=O)[C@]1(c2cc3ccccc3n2S(=O)(=O)c2ccccc2)CC2CN(C(C)=O)C1CC2=O (stereo not given in full)	2.02 µM (inactive)	0.855 µM (active)	3.46 µM (inactive)	1.99 µM (inactive)	1.82 µM (inactive)	3.14 µM (inactive)	1.59 µM (inactive)	1.89 µM (inactive)	9.64 µM (inactive)	2.58 µM (inactive)	1.75 µM (inactive)	3.43 µM (inactive)	2.77 µM (inactive)	2.57 µM (inactive)	2.68 µM (inactive)	5.94 µM (inactive)	1.98 µM (inactive)	3.3 µM (inactive)	2.87 µM (inactive)	0.637 µM (active)
COC(=O)Nc1nc2cc(S(=O)(=O)Nc3ccccn3)ccc2[nH]1	> 100 µM (inactive)	25.5 µM (inactive)	71.1 µM (inactive)	32.4 µM (inactive)	76 µM (inactive)	34.6 µM (inactive)	21.1 µM (inactive)	49.9 µM (inactive)	61.1 µM (inactive)	> 100 µM (inactive)	45.2 µM (inactive)	46.5 µM (inactive)	58.5 µM (inactive)	27.9 µM (inactive)	92 µM (inactive)	35.6 µM (inactive)	25.7 µM (inactive)	> 100 µM (inactive)	34.1 µM (inactive)	26.1 µM (inactive)
C/C(=N\O)c1cccc(Nc2c3ccccc3nc3occc23)c1	5.86 µM (inactive)	4.25 µM (inactive)	14.8 µM (inactive)	4.73 µM (inactive)	7.18 µM (inactive)	5.15 µM (inactive)	2.79 µM (inactive)	3.52 µM (inactive)	16.7 µM (inactive)	4.51 µM (inactive)	1.74 µM (inactive)	13.7 µM (inactive)	2.86 µM (inactive)	2.77 µM (inactive)	11.8 µM (inactive)	8.61 µM (inactive)	3.58 µM (inactive)	48 µM (inactive)	2.3 µM (inactive)	3.4 µM (inactive)
O=C(OCc1ccccc1)N1CCNCCNCCN(C(=O)OCc2ccccc2)CCNCC1	24 µM (inactive)	16.7 µM (inactive)	> 100 µM (inactive)	56.9 µM (inactive)	12.7 µM (inactive)	21.2 µM (inactive)	14.1 µM (inactive)	14 µM (inactive)	20.8 µM (inactive)	16.1 µM (inactive)	15.7 µM (inactive)	17.3 µM (inactive)	20.1 µM (inactive)	32.1 µM (inactive)	47.4 µM (inactive)	19.1 µM (inactive)	13 µM (inactive)	33.3 µM (inactive)	50.5 µM (inactive)	18.8 µM (inactive)
CC1(C)CCCCCCC2OC2CCCCCC(C)(C)C1=O (stereo not given)	60.1 µM (inactive)	24 µM (inactive)	> 71.1 µM (inactive)	34.1 µM (inactive)	25.5 µM (inactive)	36.1 µM (inactive)	27.5 µM (inactive)	35.8 µM (inactive)	> 84.9 µM (inactive)	29.9 µM (inactive)	22.1 µM (inactive)	44.4 µM (inactive)	> 53.8 µM (inactive)	47.8 µM (inactive)	> 44.8 µM (inactive)	45.1 µM (inactive)	30 µM (inactive)	> 62.1 µM (inactive)	25.9 µM (inactive)	28.2 µM (inactive)
